Assays:
[1] = test system: mouse model of human alcoholic hepatitis; assay: AH (NIAAA) mouse model, 8-week efficacy and safety study, alone and with prednisolone
Source text: Mice were fed with the ethanol diet for four weeks, followed by 4 weeks of intervention (8 weeks total treatment).
Livers were collected at the end-point from all mice and weighed. Liver samples were processed for histology to assess steatosis, inflammatory infiltrates and fibrosis. Briefly, liver tissue was fixed in 4% paraformaldehyde and paraffin-embedded, sectioned into 5 m thickness, and stained with hematoxylin-eosin (H&E), Oil-Red O staining, and Masson's trichrome staining.
Safety testing: The safety of indeglitazar treatment was assessed by body weight measurements and full necropsy at endpoint. Mice were terminated from the experiment by isoflurane anesthesia and blood was collected by a cardiac bleed into EDTA-treated tubes, and then centrifuged to obtain plasma to conduct clinical chemistry including full liver and renal toxicology panel. A portion of the liver was analyzed for liver triglycerides and cholesterol levels by biochemical assays. […] Hearts were weighted and fixed in 10% NBF, paraffin embedded, and sectioned into 4-μm thick slices. H&E staining was used to investigate myocardial cell hypertrophy, and ventricle diameters by microscopy.

alcoholic hepatitis = details: human, in vivo; cited from earlier work
NASH = details: human, in vivo; cited from earlier work
[2] = indeglitazar 50 mg/kg, prednisolone 10 mg/kg, vs EtOH-treated vehicle control
[3] = indeglitazar 50 mg/kg, prednisolone 10 mg/kg, vs ethanol-treated vehicle control
[4] = indeglitazar 50 mg/kg, prednisolone 10 mg/kg, vs vehicle+EtOH
[5] = indeglitazar 50 mg/kg/day, prednisolone 10 mg/kg/day, vs ethanol-treated vehicle control

C[C@]12C=CC(=O)C=C1CC[C@@H]1[C@@H]2[C@@H](O)C[C@@]2(C)[C@H]1CC[C@]2(O)C(=O)CO [Prednisolone, prednisolone, reference compound]
liver histopathology: steatosis, hepatocellular karyomegaly, and ballooning ([1]; indeglitazar 50 mg/kg, prednisolone 10 mg/kg, data not shown): no significant effect
effect on liver hydroxyproline [1, 2]: no significant effect
effect on plasma adiponectin [1, 2]: no significant effect
effect on ALT [1, 3]: no significant effect
effect on AST [1, 3]: no significant effect
effect on total bilirubin [1, 3]: increased
decrease of plasma TGFβ [1, 4]: 56%
increase of adiponectin [1, 4]: +3.4%
effect on body weight [1, 5]: Neither EtOH (vs no EtOH vehicle control), indeglitazar, or prednisolone had a significant effect
effect on heart weight (actual) [1, 5]: Neither EtOH (vs no EtOH vehicle control), indeglitazar, or prednisolone had a significant effect
effect on overall survival ([1]; indeglitazar 50 mg/kg/day, prednisolone 10 mg/kg/day, vs ethanol-treated vehicle control, male and female mice): no significant effect
effect on liver triglycerides ([1]; prednisolone 10 mg/kg, vs vehicle+EtOH): no significant effect
increase of plasma TNF-α ([1]; prednisolone 10 mg/kg, vs vehicle+EtOH, P<0.0001): 123%
change of hydroxyproline (signed) ([1]; prednisolone 10 mg/kg, vs vehicle+EtOH, P>0.05): −7%

CC(=O)CCCCn1c(=O)c2c(ncn2C)n(C)c1=O [pentoxifylline]
overall survival and liver damage in AH patients (alcoholic hepatitis): failed to improve overall survival or to decrease liver damage

vitamin E
improvement of NASH, share of people treated (NASH): about half
